Source: US20260159604A1, “USES OF NON-SMALL CELL LUNG CANCER TARGET ARID1A AND INHIBITOR THEREOF IN PREPARATION OF DRUG FOR TREATING LUNG CANCER” (THE FIRST AFFILIATED HOSPITAL OF BENGBU MEDICAL COLLEGE, priority 2021, published 2026)

Experiments:
[1] = system: ARID1A-deficient lung cancers; assay: Intervention in glycolysis in AAV9-CMV-Cre induced KP and KPAfl/fl mouse lung cancer models; format: in vivo; conditions: KPAfl/fl mice, AAV9-CMV-Cre induction
Excerpt: In Example 4 of the present invention, the biological mechanism of ARID1A deletion promoting lung cancer progression by increasing glycolysis levels was described. In this example, one or more strategies were used to intervene in glycolysis levels, and whether the method(s) could inhibit the progression of ARID1A-deficient lung cancers was observed. In one embodiment, the present invention used a clinical drug 2-DG to inhibit glucose metabolism levels, including glycolysis levels of tumor cells. In another embodiment, the present invention used lentivirus-mediated CRISPR/Cas9 to interfere with the expression of Pgam1 gene (pSECC-sgPgaml group), wherein the nucleotide sequences of the sgRNA were as shown in SEQ ID NO: 4 and SEQ ID NO: 5. In another embodiment, the present invention used lentivirus-mediated CRISPR/Cas9 to interfere with the expression of Pkm gene (pSECC-sgPkm group), wherein the nucleotide sequences of the […] were as shown in SEQ ID NO: 6 and SEQ ID NO: 7.
Firstly, 4-week-old KP and KPAfl/fl mouse systems were established. Secondly, AAV9-CMV-Cre virus induction was performed on mice. At the same time, lentivirus-mediated Cas9 and sgRNA were administered respectively to target a key gene Pgam1 or Pkm in glycolysis for intervention, with 2-DG drug treatment as another experimental group. […]

[2] = system: KP and KPAfl/fl tumor-derived organoids; assay: Drug sensitivity of BET inhibitors on tumor-derived organoids; format: cell-based, mouse; conditions: for number of organoids with increasing drug concentration: different drug concentrations
Description: Firstly, lung tumor cells of KP and KPAfl/fl mice were taken for in vitro organoid culture and expansion, and drug sensitivity experiments of five widely used BET inhibitors were conducted on tumor-derived organoids (as shown in FIG. 7 panel A).

[3] = system: tumors with ARID1A knockout; assay: KP and KPAfl/fl tumor organoids xenotransplanted subcutaneously into C57 mice; format: in vivo, mouse; conditions: subcutaneous organoid xenotransplant in C57 mice, volumes measured every 3 days
Description: During the experiment, tumor volumes were measured every 3 days.

[4] = system: ARID1A-deficient lung cancer cells; assay: Sensitivity to BETi small molecules in transgenic model mice (KP and KPAfl/fl groups); format: in vivo, mouse
Description: Finally, the sensitivity of BETi small molecules to ARID1A-deficient cells was tested on transgenic model mice (KP and KPAfl/fl groups) (FIG. 7 panel D).

[5] = system: ARID1A-mutant ovarian cancers; conditions: reported studies; cited from earlier work

With `O=CC[C@@H](O)[C@H](O)[C@H](O)CO` [2-DG, 2-deoxy-D-glucose] as the molecule, how does the “inhibition of tumor progression caused by the ARID1A deletion” value [1] read?
Its value is “could to some extent inhibit tumor progression”.

For `Cc1sc2c(c1C)C(c1ccc(Cl)cc1)=N[C@@H](CC(=O)Nc1ccc(O)cc1)c1nnc(C)n1-2` [OTX015, Birabresib], which “number of organoids with increasing drug concentration” value ([2]; 7th day) is on record?
Its value is “the number of organoids decreased with the increase of drug concentration”.

Which results are given for `Cc1sc2c(c1C)C(c1ccc(Cl)cc1)=N[C@@H](CC(=O)OC(C)(C)C)c1nnc(C)n1-2` [JQ1]?
survival ability of ARID1A-deficient versus ARID1A wild-type tumor organoids [2]: greater damage to the survival ability of ARID1A-deficient tumor organoids than ARID1A wild-type organoids; number of organoids with increasing drug concentration ([2]; 7th day): the number of organoids decreased with the increase of drug concentration; formation of tumor-derived organoids, KPAfl/fl versus KP ([2]; concentrations of 10 μm and 50 μm, 7th day): selectively impaired the formation of KPAfl/fl tumor-derived organoids; sensitivity of ARID1A-deficient lung adenocarcinoma cells to BETi compounds ([2]; summary statement, compared with other BETi): more sensitive; sensitivity by comparing tumor volumes and weights [3]: more sensitive; slowing of progression of ARID1A-deficient lung cancers (FIG. 7 legend) ([4]; FIG. 7 summary): more prominent inhibitory effect; sensitivity by comparing the number and area of tumors ([4]; transgenic KP and KPAfl/fl mice): sensitive; inhibitory effects on ARID1A-mutant ovarian cancers [5]: inhibitory effects on ARID1A-mutant ovarian cancers

For `CC(=O)N1c2ccc(-c3ccc(C(=O)O)cc3)cc2[C@H](Nc2ccc(Cl)cc2)C[C@@H]1C` [Bet726], which “number of organoids with increasing drug concentration” value ([2]; 7th day) is on record?
The value was “the number of organoids decreased with the increase of drug concentration”.

For `COc1cc2c(cc1-c1c(C)noc1C)ncc1[nH]c(=O)n([C@H](C)c3ccccn3)c12` [Bet151], which “number of organoids with increasing drug concentration” value ([2]; 7th day) is on record?
Its value is “the number of organoids decreased with the increase of drug concentration”.
